In PubChem BioAssay (NCI) one finds GI50 and TGI data, which are given here for eleven compounds.

Where “and” joins values, the source holds several entries; their conditions need not be identical. Equal values may be shown once.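 Compound exposure: 48 hours, 5 concentrations, 96-well plates. At the GI50, growth is halved. TGI is the concentration that stops growth completely.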

In one experiment the test system is NCI/ADR-RES ovarian. In words: inhibition of tumour cell growth, NCI panel, 48 h.
For `C=C(C)C(OC)C(O)CC1(C)CC(O)CC(C)(C2CCC3OC(C4(C)CCC(Br)C(C)(C)O4)CCC3(C)O2)O1` (configuration not stated), the GI50 was 18.3 µM and the TGI turned out to be 39.6 µM.

As for `NC(N)=NS(=O)(=O)c1ccc(Nc2c3ccccc3nc3c(C(=O)NCCO)cccc23)cc1`, the GI50 is 48.7 µM and the TGI was over 100 µM.

In the case of `COc1cccc(-c2cc(-c3cccc(NS(C)(=O)=O)c3)nc(N)c2C#N)c1O`, the GI50 was 0.154 µM and the TGI came to 2.34 µM.

As for `COc1ccc2c(c1)sc1nc(-c3ccccc3)c(-c3cccc4ccccc34)n12`, the GI50 is 0.47 µM and the TGI was over 100 µM.

For the compound `OCCN(CCO)c1ncnc2c1ncn2Cc1ccc(CCl)cc1`, the GI50 was 24.7 µM and the TGI was determined as 74.1 µM.

As for `O=C(Nc1ccccc1)c1c(O)[nH]c(=S)[nH]c1=O`, the TGI amounted to 83.8 µM.

`Cc1ccc(NC(=O)Nc2ccc(-c3cccnc3)cc2N2CCC(CO)CC2)cc1`: the GI50 is 3.62 µM and the TGI was over 100 µM.

For `Cc1cc(-c2nc(C(=O)Nc3cc4oc(N5CCOCC5)nc4nc3N3CC[C@@H](O)C3)co2)ccn1`, the GI50 was over 100 µM and the TGI was over 100 µM.

As for `COc1cc(/C=N\NC(=O)CN2CCN(c3cc4c(cc3F)c(=O)c(C(=O)N/N=C/c3cc(OC)c(OC)c(OC)c3)cn4C3CC3)CC2)cc(OC)c1OC`, the GI50 was over 100 µM and the TGI was over 100 µM.

Turning to `C=CC(=O)Nc1cc(Nc2ncc(C(=O)OC(C)C)c(-c3cn(C)c4ccccc34)n2)c(OC)cc1N(C)CCN(C)C`, the GI50 was 2.3 µM and the TGI stood at 17.7 µM.

Regarding `CN(C)c1ccc(/C=C\C2=[N+](C)c3ccccc3C2(C)C)cc1`, the GI50 is 10.6 µM and the TGI was over 61.6 µM.

In another experiment the test system is NCI-H522 lung. In words: inhibition of tumour cell growth, NCI panel, 48 h.
With `C=C(C)C(OC)C(O)CC1(C)CC(O)CC(C)(C2CCC3OC(C4(C)CCC(Br)C(C)(C)O4)CCC3(C)O2)O1` (configuration not stated), the GI50 is 18.2 µM and the TGI is 55.8 µM.

As to `NC(N)=NS(=O)(=O)c1ccc(Nc2c3ccccc3nc3c(C(=O)NCCO)cccc23)cc1`, the GI50 was 16.6 µM.

Regarding `COc1cccc(-c2cc(-c3cccc(NS(C)(=O)=O)c3)nc(N)c2C#N)c1O`, the GI50 is 0.0163 µM and the TGI was 0.075 µM.

Consider `COc1ccc2c(c1)sc1nc(-c3ccccc3)c(-c3cccc4ccccc34)n12`, for which the GI50 is 0.661 µM and the TGI was 28.2 µM.

With `OCCN(CCO)c1ncnc2c1ncn2Cc1ccc(CCl)cc1`, the GI50 is 18.5 µM and the TGI is 46.6 µM.

As for `O=C(Nc1ccccc1)c1c(O)[nH]c(=S)[nH]c1=O`, the GI50 was 83 µM; the TGI is 58.3 µM and > 250 µM.

For `Cc1ccc(NC(=O)Nc2ccc(-c3cccnc3)cc2N2CCC(CO)CC2)cc1`, the GI50 is 1.66 µM and the TGI amounted to 5.12 µM.

Turning to `Cc1cc(-c2nc(C(=O)Nc3cc4oc(N5CCOCC5)nc4nc3N3CC[C@@H](O)C3)co2)ccn1`, the GI50 is 20 µM and the TGI was over 100 µM.

As for `COc1cc(/C=N\NC(=O)CN2CCN(c3cc4c(cc3F)c(=O)c(C(=O)N/N=C/c3cc(OC)c(OC)c(OC)c3)cn4C3CC3)CC2)cc(OC)c1OC`, the GI50 was 0.249 µM.

As to `C=CC(=O)Nc1cc(Nc2ncc(C(=O)OC(C)C)c(-c3cn(C)c4ccccc34)n2)c(OC)cc1N(C)CCN(C)C`, the GI50 is 0.02 µM and the TGI came out at 5.74 µM.

`CN(C)c1ccc(/C=C\C2=[N+](C)c3ccccc3C2(C)C)cc1`: the GI50 is 0.703 µM and the TGI was over 67.4 µM.

A further experiment deals with SNB-75 CNS. In words: inhibition of tumour cell growth, NCI panel, 48 h.
As for `C=C(C)C(OC)C(O)CC1(C)CC(O)CC(C)(C2CCC3OC(C4(C)CCC(Br)C(C)(C)O4)CCC3(C)O2)O1` (configuration not stated), the GI50 was 27.4 µM and the TGI was over 61.5 µM.

Consider `NC(N)=NS(=O)(=O)c1ccc(Nc2c3ccccc3nc3c(C(=O)NCCO)cccc23)cc1`, for which the TGI came out at 55.2 µM.

Turning to `COc1cccc(-c2cc(-c3cccc(NS(C)(=O)=O)c3)nc(N)c2C#N)c1O`, the GI50 is 0.0797 µM and the TGI was found to be 5.15 µM.

Take `COc1ccc2c(c1)sc1nc(-c3ccccc3)c(-c3cccc4ccccc34)n12`: the GI50 was 0.386 µM and the TGI is over 100 µM.

For `OCCN(CCO)c1ncnc2c1ncn2Cc1ccc(CCl)cc1`, the GI50 was 20.3 µM and the TGI came out at 40.9 µM.

`O=C(Nc1ccccc1)c1c(O)[nH]c(=S)[nH]c1=O` gave a TGI of 91.9 µM.

Take `Cc1ccc(NC(=O)Nc2ccc(-c3cccnc3)cc2N2CCC(CO)CC2)cc1`: the GI50 was 1.26 µM and the TGI turned out to be 5.03 µM.

Take `Cc1cc(-c2nc(C(=O)Nc3cc4oc(N5CCOCC5)nc4nc3N3CC[C@@H](O)C3)co2)ccn1`: the GI50 is 9.41 µM and the TGI came to 69.2 µM.

Turning to `COc1cc(/C=N\NC(=O)CN2CCN(c3cc4c(cc3F)c(=O)c(C(=O)N/N=C/c3cc(OC)c(OC)c(OC)c3)cn4C3CC3)CC2)cc(OC)c1OC`, the GI50 is 0.53 µM and the TGI was 2.12 µM.

With `C=CC(=O)Nc1cc(Nc2ncc(C(=O)OC(C)C)c(-c3cn(C)c4ccccc34)n2)c(OC)cc1N(C)CCN(C)C`, the GI50 was 1.93 µM and the TGI worked out at 10.3 µM.

With `CN(C)c1ccc(/C=C\C2=[N+](C)c3ccccc3C2(C)C)cc1`, the GI50 is 0.709 µM and the TGI came out at 19.9 µM.

The subject of a further experiment is SR leukemia. As to the kind of experiment: inhibition of tumour cell growth, NCI panel, 48 h.
In the case of `C=C(C)C(OC)C(O)CC1(C)CC(O)CC(C)(C2CCC3OC(C4(C)CCC(Br)C(C)(C)O4)CCC3(C)O2)O1` (configuration not stated), the GI50 was 34.9 µM and the TGI was over 100 µM.

In the case of `NC(N)=NS(=O)(=O)c1ccc(Nc2c3ccccc3nc3c(C(=O)NCCO)cccc23)cc1`, the GI50 is 30.7 µM.

For the compound `COc1cccc(-c2cc(-c3cccc(NS(C)(=O)=O)c3)nc(N)c2C#N)c1O`, the GI50 was 0.0562 µM and the TGI was over 100 µM.

On to `COc1ccc2c(c1)sc1nc(-c3ccccc3)c(-c3cccc4ccccc34)n12`, for which the GI50 is 0.323 µM and the TGI is over 100 µM.

For `OCCN(CCO)c1ncnc2c1ncn2Cc1ccc(CCl)cc1`, the GI50 is 6.94 µM and the TGI was over 100 µM.

Regarding `O=C(Nc1ccccc1)c1c(O)[nH]c(=S)[nH]c1=O`, the TGI was found to be 53.8 µM.

Regarding `Cc1ccc(NC(=O)Nc2ccc(-c3cccnc3)cc2N2CCC(CO)CC2)cc1`, the GI50 was 2.83 µM and the TGI is over 100 µM.

With `Cc1cc(-c2nc(C(=O)Nc3cc4oc(N5CCOCC5)nc4nc3N3CC[C@@H](O)C3)co2)ccn1`, the GI50 is 30.9 µM and the TGI is over 100 µM.

With `COc1cc(/C=N\NC(=O)CN2CCN(c3cc4c(cc3F)c(=O)c(C(=O)N/N=C/c3cc(OC)c(OC)c(OC)c3)cn4C3CC3)CC2)cc(OC)c1OC`, the GI50 is 0.324 µM and the TGI was over 100 µM.

`C=CC(=O)Nc1cc(Nc2ncc(C(=O)OC(C)C)c(-c3cn(C)c4ccccc34)n2)c(OC)cc1N(C)CCN(C)C`: the GI50 was 3.04 µM and the TGI is over 33.7 µM.

Take `CN(C)c1ccc(/C=C\C2=[N+](C)c3ccccc3C2(C)C)cc1`: the GI50 is 28.5 µM and the TGI is over 100 µM.

For a further experiment, the system named is SNB-19 CNS. As to the kind of experiment: inhibition of tumour cell growth, NCI panel, 48 h.
`C=C(C)C(OC)C(O)CC1(C)CC(O)CC(C)(C2CCC3OC(C4(C)CCC(Br)C(C)(C)O4)CCC3(C)O2)O1` (configuration not stated): the GI50 is 3.28 µM and the TGI is 39 µM.

On to `NC(N)=NS(=O)(=O)c1ccc(Nc2c3ccccc3nc3c(C(=O)NCCO)cccc23)cc1`, for which the GI50 was 26.6 µM.

On to `COc1cccc(-c2cc(-c3cccc(NS(C)(=O)=O)c3)nc(N)c2C#N)c1O`, for which the GI50 is 0.486 µM and the TGI was over 100 µM.

As to `COc1ccc2c(c1)sc1nc(-c3ccccc3)c(-c3cccc4ccccc34)n12`, the GI50 is 0.589 µM and the TGI was over 100 µM.

On to `OCCN(CCO)c1ncnc2c1ncn2Cc1ccc(CCl)cc1`, for which the GI50 was 19.9 µM and the TGI is 41.2 µM.

In the case of `O=C(Nc1ccccc1)c1c(O)[nH]c(=S)[nH]c1=O`, the GI50 was 40.7 µM; the TGI was 118 µM and > 250 µM.

`Cc1ccc(NC(=O)Nc2ccc(-c3cccnc3)cc2N2CCC(CO)CC2)cc1`: the GI50 was 2.64 µM and the TGI was over 100 µM.

For `Cc1cc(-c2nc(C(=O)Nc3cc4oc(N5CCOCC5)nc4nc3N3CC[C@@H](O)C3)co2)ccn1`, the GI50 was 78.8 µM and the TGI was over 100 µM.

`COc1cc(/C=N\NC(=O)CN2CCN(c3cc4c(cc3F)c(=O)c(C(=O)N/N=C/c3cc(OC)c(OC)c(OC)c3)cn4C3CC3)CC2)cc(OC)c1OC`: the GI50 was 0.445 µM and the TGI is over 100 µM.

As to `C=CC(=O)Nc1cc(Nc2ncc(C(=O)OC(C)C)c(-c3cn(C)c4ccccc34)n2)c(OC)cc1N(C)CCN(C)C`, the GI50 is 6.8 µM and the TGI turned out to be 22.4 µM.

As for `CN(C)c1ccc(/C=C\C2=[N+](C)c3ccccc3C2(C)C)cc1`, the GI50 is 0.775 µM and the TGI was 38.1 µM.
